Results taken from patent US20240293413A1, “COMPOUND AND METHOD FOR TREATING CHEMOTHERAPY-RELATED GASTROINTESTINAL SIDE EFFECTS” (ONQUALITY PHARMACEUTICALS CHINA LTD., priority 2021, published 2024).

Experiments:
Type in all cases: in vivo
[1] = system: Chemotherapeutic agent-caused constipation models of Balb/c mice; test: Examples 272-342 (Table 5): oral CDK inhibitor, relief of constipation caused by a chemotherapeutic agent;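 further: percent of treated mice relieved versus chemotherapy group by feces reduction rate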
How it was run: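 Feces reduction rate (%) = (control − treated)/control × 100%, based on the 3-hour feces amount recorded each day. Groups of 10 Balb/c mice received solvent, chemotherapeutic agent alone, or an oral CDK inhibitor before the chemotherapeutic agent.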

[2] = system: diarrhea caused by a chemotherapeutic agent in Balb/c mice; test: Examples 343-381 (Table 6): oral versus intravenous CDK inhibitor, relief of diarrhea caused by a chemotherapeutic agent;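 on Relative remission rate: percent of treated mice whose diarrhea grade fell below chemotherapy-group average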
How it was run: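 Balb/c mice (10 per group) received the CDK inhibitor orally or by tail-vein injection, or vehicle, followed by a chemotherapeutic agent or its solvent. Diarrhea grade was scored daily.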

[3] = system: constipation caused by a chemotherapeutic agent in Balb/c mice; test: Examples 406-443 (Table 8): various administration modes of the CDK inhibitor, relief of constipation caused by a chemotherapeutic agent;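 on Relative remission rate of oral administration: percent of treated mice relieved versus chemotherapy group by feces reduction rate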;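 on Relative remission rate of other administration mode: percent of treated mice relieved versus chemotherapy group by feces reduction rate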
How it was run: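 Balb/c mice (10 per group) received the CDK inhibitor orally, intravenously via the tail vein, intraperitoneally, intramuscularly, or topically on shaved abdominal skin, followed by a chemotherapeutic agent; vehicle groups served as controls. Feces amount over 3 h was recorded daily. Feces reduction rate was calculated relative to the control group.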

SMILES: CN1CCN(c2ccc(Nc3ncc4cc5n(c4n3)C3(CCCCC3)CNC5=O)nc2)CC1 [Trilaciclib (G1T28), Trilaciclib]
- Relative remission rate ([1]; Example 272, Fluorouracil (5-Fu) intraperitoneal injection 175 mg/kg single, CDK inhibitor oral 100 mg/kg single, 0.5 h before, cycle 7 days): 50%
- Relative remission rate ([1]; Example 273, Fluorouracil (5-Fu) intraperitoneal injection 175 mg/kg single, CDK inhibitor oral 100 mg/kg single, 1 h before, cycle 7 days): 50%
- Relative remission rate ([1]; Example 274, Fluorouracil (5-Fu) intraperitoneal injection 175 mg/kg single, CDK inhibitor oral 100 mg/kg single, 2 h before, cycle 7 days): 50%
- Relative remission rate ([1]; Example 275, Fluorouracil (5-Fu) intraperitoneal injection 175 mg/kg single, CDK inhibitor oral 100 mg/kg single, 3 h before, cycle 7 days): 40%
- Relative remission rate ([1]; Example 276, Fluorouracil (5-Fu) intraperitoneal injection 175 mg/kg single, CDK inhibitor oral 100 mg/kg single, 4 h before, cycle 7 days): 60%
- Relative remission rate ([1]; Example 277, Fluorouracil (5-Fu) intraperitoneal injection 175 mg/kg single, CDK inhibitor oral 100 mg/kg single, 5 h before, cycle 7 days): 40%
- Relative remission rate ([1]; Example 278, Fluorouracil (5-Fu) intraperitoneal injection 175 mg/kg single, CDK inhibitor oral 100 mg/kg single, 6 h before, cycle 7 days): 60%
- Relative remission rate ([1]; Example 279, Fluorouracil (5-Fu) intraperitoneal injection 175 mg/kg single, CDK inhibitor oral 100 mg/kg single, 7 h before, cycle 7 days): 70%
- Relative remission rate ([1]; Example 280, Fluorouracil (5-Fu) intraperitoneal injection 175 mg/kg single, CDK inhibitor oral 100 mg/kg single, 8 h before, cycle 7 days): 70%
- Relative remission rate ([1]; Example 281, Fluorouracil (5-Fu) intraperitoneal injection 175 mg/kg single, CDK inhibitor oral 100 mg/kg single, 9 h before, cycle 7 days): 60%
- Relative remission rate ([1]; Example 282, Fluorouracil (5-Fu) intraperitoneal injection 175 mg/kg single, CDK inhibitor oral 100 mg/kg single, 10 h before, cycle 7 days): 60%
- Relative remission rate ([1]; Example 283, Fluorouracil (5-Fu) intraperitoneal injection 175 mg/kg single, CDK inhibitor oral 100 mg/kg single, 11 h before, cycle 7 days): 50%
- Relative remission rate ([1]; Example 284, Fluorouracil (5-Fu) intraperitoneal injection 175 mg/kg single, CDK inhibitor oral 100 mg/kg single, 12 h before, cycle 7 days): 70%
- Relative remission rate ([1]; Example 285, Fluorouracil (5-Fu) intraperitoneal injection 175 mg/kg single, CDK inhibitor oral 100 mg/kg single, 13 h before, cycle 7 days): 40%
- Relative remission rate ([1]; Example 286, Fluorouracil (5-Fu) intraperitoneal injection 175 mg/kg single, CDK inhibitor oral 100 mg/kg single, 14 h before, cycle 7 days): 60%
- Relative remission rate ([1]; Example 287, Fluorouracil (5-Fu) intraperitoneal injection 175 mg/kg single, CDK inhibitor oral 100 mg/kg single, 16 h before, cycle 7 days): 50%
- Relative remission rate ([1]; Example 288, Fluorouracil (5-Fu) intraperitoneal injection 175 mg/kg single, CDK inhibitor oral 100 mg/kg single, 18 h before, cycle 7 days): 60%
- Relative remission rate ([1]; Example 289, Fluorouracil (5-Fu) intraperitoneal injection 175 mg/kg single, CDK inhibitor oral 100 mg/kg single, 20 h before, cycle 7 days): 50%
- Relative remission rate ([1]; Example 290, Fluorouracil (5-Fu) intraperitoneal injection 175 mg/kg single, CDK inhibitor oral 100 mg/kg single, 22 h before, cycle 7 days): 30%
- Relative remission rate ([1]; Example 291, Fluorouracil (5-Fu) intraperitoneal injection 175 mg/kg single, CDK inhibitor oral 100 mg/kg single, 24 h before, cycle 7 days): 30%
- Relative remission rate ([1]; Example 292, Fluorouracil (5-Fu) intraperitoneal injection 175 mg/kg single, CDK inhibitor oral 100 mg/kg single, 48 h before, cycle 7 days): 0%
- Relative remission rate ([1]; Example 303, Fluorouracil and oxaliplatin intraperitoneal injection 100 (F) 10 (O) mg/kg single, CDK inhibitor oral 100 mg/kg single, 24 h before, cycle 10 days): 40%
- Relative remission rate ([1]; Example 311, Irinotecan (CPT-11) intramuscular injection 260 mg/kg single, CDK inhibitor oral 50 mg/kg single, 1 h before, cycle 7 days): 60%
- Relative remission rate ([1]; Example 314, Fluorouracil and oxaliplatin and irinotecan intraperitoneal injection 70 (F) 5 (O) 100 (I) mg/kg single, CDK inhibitor oral 180 mg/kg single, 12 h before, cycle 10 days): 60%
- Relative remission rate ([1]; Example 323, Docetaxel (DTX) intravenous injection 10 mg/kg single, CDK inhibitor oral 100 mg/kg single, 9 h before, cycle 8 days): 60%
- Relative remission rate ([1]; Example 327, Cytarabine (Ara-C) intraperitoneal injection 600 mg/kg single, CDK inhibitor oral 100 mg/kg single, 0.5 h before, cycle 8 days): 80%
- Relative remission rate ([1]; Example 328, Cytarabine (Ara-C) intraperitoneal injection 600 mg/kg single, CDK inhibitor oral 100 mg/kg single, 4 h before, cycle 8 days): 60%
- Relative remission rate ([1]; Example 329, Cytarabine (Ara-C) intraperitoneal injection 600 mg/kg single, CDK inhibitor oral 100 mg/kg single, 8 h before, cycle 8 days): 40%
- Relative remission rate ([1]; Example 330, Cytarabine (Ara-C) intraperitoneal injection 600 mg/kg single, CDK inhibitor oral 100 mg/kg single, 12 h before, cycle 8 days): 40%
- Relative remission rate ([1]; Example 331, Cytarabine (Ara-C) intraperitoneal injection 600 mg/kg single, CDK inhibitor oral 100 mg/kg single, 24 h before, cycle 8 days): 40%
- Relative remission rate ([1]; Example 332, Cytarabine (Ara-C) intraperitoneal injection 600 mg/kg single, CDK inhibitor oral 100 mg/kg single, 48 h before, cycle 8 days): 0%
- Relative remission rate ([2]; Example 348, Etoposide intraperitoneal injection 75 mg/kg single, CDK inhibitor intravenous injection 100 mg/kg single, 24 h before, cycle 8 days): 10%
- Relative remission rate ([2]; Example 348, Etoposide intraperitoneal injection 75 mg/kg single, CDK inhibitor oral 100 mg/kg, 24 h before, cycle 8 days): 60%
- Relative remission rate ([2]; Example 365, Carboplatin (CBP) intravenous injection 120 mg/kg single, CDK inhibitor intravenous injection 100 mg/kg single, 24 h before, cycle 10 days): 10%
- Relative remission rate ([2]; Example 365, Carboplatin (CBP) intravenous injection 120 mg/kg single, CDK inhibitor oral 100 mg/kg single, 24 h before, cycle 10 days): 30%
- Relative remission rate ([2]; Example 367, Topotecan (TP) intraperitoneal injection 10 mg/kg single, CDK inhibitor intravenous injection 200 mg/kg single, 24 h before, cycle 10 days): 10%
- Relative remission rate ([2]; Example 367, Topotecan (TP) intraperitoneal injection 10 mg/kg single, CDK inhibitor oral 100 mg/kg single, 24 h before, cycle 10 days): 30%
- Relative remission rate ([2]; Example 377, Gemcitabine (GEM) intramuscular injection 120 mg/kg single, CDK inhibitor intravenous injection 50 mg/kg single, 1 h before, cycle 8 days): 10%
- Relative remission rate ([2]; Example 377, Gemcitabine (GEM) intramuscular injection 120 mg/kg single, CDK inhibitor oral 50 mg/kg single, 1 h before, cycle 8 days): 60%
- Relative remission rate ([2]; Example 380, Gemcitabine and carboplatin intravenous injection 120 (G) 100 (C) mg/kg single, CDK inhibitor intravenous injection 100 mg/kg single, 0.5 h before, cycle 8 days): 20%
- Relative remission rate ([2]; Example 380, Gemcitabine and carboplatin intravenous injection 120 (G) 100 (C) mg/kg single, CDK inhibitor oral 100 mg/kg single, 0.5 h before, cycle 8 days): 60%
- Relative remission rate ([2]; Example 381, Gemcitabine and carboplatin intravenous injection 120 (G) 100 (C) mg/kg single, CDK inhibitor intravenous injection 100 mg/kg single, 24 h before, cycle 8 days): 10%
- Relative remission rate ([2]; Example 381, Gemcitabine and carboplatin intravenous injection 120 (G) 100 (C) mg/kg single, CDK inhibitor oral 100 mg/kg single, 24 h before, cycle 8 days): 40%
- relief of diarrhea by oral administration and injection administration ([2]; diarrhea caused by etoposide, etoposide in combination with cisplatin, carboplatin, gemcitabine, gemcitabine in combination with carboplatin, and topotecan, oral administration has the most significant effect): effectively relieve diarrhea
- Relative remission rate of other administration mode ([3]; Example 411, Doxorubicin (Dox) intravenous injection 12 mg/kg single, CDK inhibitor intraperitoneal injection 100 mg/kg single, 24 h before, cycle 8 days): 10%
- Relative remission rate of oral administration ([3]; Example 411, Doxorubicin (Dox) intravenous injection 12 mg/kg single, CDK inhibitor oral 100 mg/kg single, 24 h before, cycle 8 days): 30%
- Relative remission rate of other administration mode ([3]; Example 421, Etoposide and cisplatin intraperitoneal injection 50€ 5 mg/kg single, CDK inhibitor intravenous injection 100 mg/kg single, 24 h before, cycle 7 days): 10%
- Relative remission rate of oral administration ([3]; Example 421, Etoposide and cisplatin intraperitoneal injection 50€ 5 mg/kg single, CDK inhibitor oral 150 mg/kg single, 24 h before, cycle 7 days): 20%
- Relative remission rate of other administration mode ([3]; Example 436, Gemcitabine intramuscular injection 120 mg/kg single, CDK inhibitor intramuscular injection 100 mg/kg single, 24 h before, cycle 8 days): 10%
- Relative remission rate of oral administration ([3]; Example 436, Gemcitabine intramuscular injection 120 mg/kg single, CDK inhibitor oral 100 mg/kg single, 24 h before, cycle 8 days): 40%
- Relative remission rate of other administration mode ([3]; Example 438, Gemcitabine and Carboplatin intravenous injection 120 (G) 100 (C) mg/kg single, CDK inhibitor intraperitoneal injection 100 mg/kg single, 12 h before, cycle 8 days): 20%
- Relative remission rate of oral administration ([3]; Example 438, Gemcitabine and Carboplatin intravenous injection 120 (G) 100 (C) mg/kg single, CDK inhibitor oral 100 mg/kg single, 12 h before, cycle 8 days): 50%
- Relative remission rate of other administration mode ([3]; Example 439, Gemcitabine and Carboplatin intravenous injection 120 (G) 100 (C) mg/kg single, CDK inhibitor intraperitoneal injection 100 mg/kg single, 24 h before, cycle 8 days): 20%
- Relative remission rate of oral administration ([3]; Example 439, Gemcitabine and Carboplatin intravenous injection 120 (G) 100 (C) mg/kg single, CDK inhibitor oral 100 mg/kg single, 24 h before, cycle 8 days): 50%
- improvement of constipation by oral administration, intraperitoneal injection, intramuscular injection, local administration ([3]; constipation caused by doxorubicin, etoposide, etoposide plus cisplatin, carboplatin, gemcitabine, gemcitabine plus carboplatin, under certain conditions, oral most significant): can significantly improve constipation
